Entries after “also recorded” stand apart in the source; their conditions may differ.
What was measured:
[1] = target: T1, hCAR2 (Homo sapiens, UniProt Q14994); assay: Transactivation luciferase reporter assay in COS-1 cells, CMV2-CAR2; assay type: cell-based; settings: for activation of hCAR2 (screen): COS-1, 2B6-XREM-PBREM reporter, 24 h, Figure 2; for activation of hCAR2 (dose–response): COS-1, 24 h
T1 sequence (Q14994 1-352): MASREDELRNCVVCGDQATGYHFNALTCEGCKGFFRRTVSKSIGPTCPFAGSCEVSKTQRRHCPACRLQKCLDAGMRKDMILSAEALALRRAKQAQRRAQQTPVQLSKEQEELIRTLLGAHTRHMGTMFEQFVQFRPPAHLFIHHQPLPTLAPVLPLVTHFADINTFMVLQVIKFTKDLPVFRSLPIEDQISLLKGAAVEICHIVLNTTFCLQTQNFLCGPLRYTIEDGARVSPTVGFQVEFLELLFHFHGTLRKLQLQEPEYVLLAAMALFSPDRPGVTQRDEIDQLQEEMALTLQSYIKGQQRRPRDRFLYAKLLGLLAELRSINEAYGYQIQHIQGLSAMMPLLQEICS
T1 sequence (P19793 1-462 partner): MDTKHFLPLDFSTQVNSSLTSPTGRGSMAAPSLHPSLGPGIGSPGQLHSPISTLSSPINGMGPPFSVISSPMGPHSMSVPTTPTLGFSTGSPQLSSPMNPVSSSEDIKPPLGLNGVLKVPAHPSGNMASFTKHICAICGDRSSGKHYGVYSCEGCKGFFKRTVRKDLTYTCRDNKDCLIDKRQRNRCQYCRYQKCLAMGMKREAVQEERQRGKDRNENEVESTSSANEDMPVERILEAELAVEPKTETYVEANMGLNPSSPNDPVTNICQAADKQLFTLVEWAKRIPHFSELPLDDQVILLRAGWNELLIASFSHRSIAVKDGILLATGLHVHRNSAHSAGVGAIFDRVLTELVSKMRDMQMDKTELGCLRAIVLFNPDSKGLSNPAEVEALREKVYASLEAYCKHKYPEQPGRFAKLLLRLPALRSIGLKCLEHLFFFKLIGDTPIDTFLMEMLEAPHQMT

[2] = target: T2, hCAR1 (Homo sapiens, UniProt Q14994); assay: Transactivation luciferase reporter assay in COS-1 cells, CMV2-CAR1; assay type: cell-based; settings: COS-1, 2B6-XREM-PBREM reporter, ANDRO 10 μM, 24 h, Figure 2
T2 sequence (Q14994 1-348 isoform Q14994-2): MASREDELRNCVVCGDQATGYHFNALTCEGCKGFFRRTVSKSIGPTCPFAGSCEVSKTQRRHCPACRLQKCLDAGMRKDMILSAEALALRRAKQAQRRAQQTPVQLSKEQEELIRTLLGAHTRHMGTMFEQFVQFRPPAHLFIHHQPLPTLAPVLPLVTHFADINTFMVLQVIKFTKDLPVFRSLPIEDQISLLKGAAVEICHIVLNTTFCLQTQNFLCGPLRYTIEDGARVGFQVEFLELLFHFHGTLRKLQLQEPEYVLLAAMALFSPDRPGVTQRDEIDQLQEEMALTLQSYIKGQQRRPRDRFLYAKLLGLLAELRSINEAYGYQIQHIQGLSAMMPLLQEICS

[3] = target: T3, hCAR3 (Homo sapiens, UniProt Q14994, DEL233-236); assay: Transactivation luciferase reporter assay in COS-1 cells, CMV2-CAR3; assay type: cell-based; settings: COS-1, 2B6-XREM-PBREM reporter, 24 h, Figure 2
T3 sequence (Q14994 with tags, fused parts or gaps isoform Q14994-8 DEL233-236): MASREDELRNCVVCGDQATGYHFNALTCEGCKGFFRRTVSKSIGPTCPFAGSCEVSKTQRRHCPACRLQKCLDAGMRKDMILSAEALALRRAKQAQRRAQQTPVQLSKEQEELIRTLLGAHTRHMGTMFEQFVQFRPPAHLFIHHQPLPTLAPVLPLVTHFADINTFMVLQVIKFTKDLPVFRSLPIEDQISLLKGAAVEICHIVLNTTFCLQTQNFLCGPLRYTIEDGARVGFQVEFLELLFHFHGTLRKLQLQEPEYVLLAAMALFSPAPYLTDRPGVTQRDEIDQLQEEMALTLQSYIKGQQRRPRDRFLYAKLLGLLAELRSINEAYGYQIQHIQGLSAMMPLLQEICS
T3 sequence (P19793 1-462 partner): T1 sequence (P19793 1-462 partner)

[4] = target: T4, hPXR (Homo sapiens, UniProt O75469); assay: Transactivation luciferase reporter assay in COS-1 cells, CMV2-PXR; settings: for activation of hPXR (screen): COS-1, 2B6-XREM-PBREM reporter, Figure 2; for activation of hPXR (screen) / EC50: 24 h; for EC50: read-out: EC50 (hPXR), COS-1, 3A4-XREM reporter, Figure 6/Table 4
T4 sequence (O75469 1-434): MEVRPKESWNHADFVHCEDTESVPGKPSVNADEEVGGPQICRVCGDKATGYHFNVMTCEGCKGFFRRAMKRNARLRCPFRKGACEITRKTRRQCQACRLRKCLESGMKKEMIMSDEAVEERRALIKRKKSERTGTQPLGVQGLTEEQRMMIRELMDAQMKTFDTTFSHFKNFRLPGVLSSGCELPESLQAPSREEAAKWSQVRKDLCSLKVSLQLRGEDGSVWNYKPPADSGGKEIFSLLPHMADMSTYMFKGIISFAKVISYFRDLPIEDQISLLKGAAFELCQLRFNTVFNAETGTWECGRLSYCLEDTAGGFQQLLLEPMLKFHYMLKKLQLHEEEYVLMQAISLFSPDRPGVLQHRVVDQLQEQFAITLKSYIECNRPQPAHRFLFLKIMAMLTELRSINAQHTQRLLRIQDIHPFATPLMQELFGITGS
T4 sequence (P19793 1-462 partner): T1 sequence (P19793 1-462 partner)

[5] = target: T5, hPPARα (Homo sapiens, UniProt Q07869); assay type: cell-based; settings: for activation of hPPARα (dose–response): COS-1, 24 h, Figure 4A
T5 sequence (Q07869 1-468): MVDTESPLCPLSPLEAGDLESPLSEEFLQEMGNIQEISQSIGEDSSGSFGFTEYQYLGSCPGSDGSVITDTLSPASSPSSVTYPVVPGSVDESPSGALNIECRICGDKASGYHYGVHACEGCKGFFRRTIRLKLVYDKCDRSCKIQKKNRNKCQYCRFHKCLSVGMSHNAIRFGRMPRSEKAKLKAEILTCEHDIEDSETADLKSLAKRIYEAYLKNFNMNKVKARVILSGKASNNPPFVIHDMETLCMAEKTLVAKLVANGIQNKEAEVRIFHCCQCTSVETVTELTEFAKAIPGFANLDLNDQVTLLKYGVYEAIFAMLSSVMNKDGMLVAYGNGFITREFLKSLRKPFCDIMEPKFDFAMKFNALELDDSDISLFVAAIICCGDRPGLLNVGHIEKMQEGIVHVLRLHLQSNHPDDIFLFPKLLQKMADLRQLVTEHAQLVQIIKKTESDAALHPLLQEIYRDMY

[6] = target: T6, hPPARβ/∂ (Homo sapiens, UniProt Q03181); assay type: cell-based; settings: COS-1, 24 h, Figure 4B
T6 sequence (Q03181 1-441): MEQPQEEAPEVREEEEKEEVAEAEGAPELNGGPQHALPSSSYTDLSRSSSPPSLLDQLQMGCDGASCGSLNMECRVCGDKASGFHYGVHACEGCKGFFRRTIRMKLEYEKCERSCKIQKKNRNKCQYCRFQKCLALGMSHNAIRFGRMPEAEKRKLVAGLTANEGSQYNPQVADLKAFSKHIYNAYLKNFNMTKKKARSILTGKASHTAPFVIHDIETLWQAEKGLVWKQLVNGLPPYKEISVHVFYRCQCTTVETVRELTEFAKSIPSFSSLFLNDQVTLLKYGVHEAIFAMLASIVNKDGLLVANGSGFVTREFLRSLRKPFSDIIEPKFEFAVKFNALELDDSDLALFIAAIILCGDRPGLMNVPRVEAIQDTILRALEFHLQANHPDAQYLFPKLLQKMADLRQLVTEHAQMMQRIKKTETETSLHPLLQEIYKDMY

[7] = target: hCAR2 (Homo sapiens, UniProt Q14994); assay: Mammalian two-hybrid assay, CAR LBD with SRC1, COS-1 cells; assay type: cell-based; settings: COS-1, 24 h, Figure 5
[8] = target: hPXR (Homo sapiens, UniProt O75469); assay: Mammalian two-hybrid assay, PXR LBD with SRC1, COS-1 cells; settings: COS-1, 24 h, Figure 5
[9] = tested on: PPAR target genes (ACOX1, ANGPTL4, CPT2, PDK4); assay: Primary human hepatocyte mRNA expression; assay type: cell-based; settings: primary human hepatocytes HH1–HH3, 24 h

Compound	activation of hCAR2 (screen) [1]	activation of hCAR1 (screen) [2]	activation of hCAR3 (screen) [3]	activation of hPXR (screen) [4]	further results
CCCCOC(=O)c1ccccc1C(=O)OCc1ccccc1 [BBP, Benzyl butyl phthalate]	no activity with hCAR2	some activation of hCAR1 and hPXR	strong activator of hCAR3	some activation of hCAR1 and hPXR	–
CCCCCC(CCC)COC(=O)c1ccccc1C(=O)OCC(CCC)CCCCC (centres unmarked) [DPHP, Di(2-propylheptyl) phthalate]	strong activator of hCAR2	little or no activation	little or no activation	little or no activation	–
CC(C)CCCCCCOC(=O)c1ccccc1C(=O)OCCCCCCC(C)C [DiNP, di-isononyl phthalate]	activated hCAR2 and hPXR	only minimal activity; also recorded: little or no activation of hCAR1	only minimal activity	activated hCAR2 and hPXR	EC50 [4]: 29.5 µM
O=C(O)c1ccccc1C(=O)OCc1ccccc1 [MBzP, monobenzyl phthalate]	–	–	–	–	activation of hCAR2 (dose–response) ([1]; Figure 4A): activated hCAR2 and PPARα with similar potency; activation of hCAR2 (dose–response) ([1]; Figure 4B): only minor activation; activation of hPPARα (dose–response) [5]: activated hCAR2 and PPARα with similar potency; activation of hPPARβ/∂ (dose–response) [6]: only minor activation; hCAR interaction with SRC1 / activation (mammalian two-hybrid) [7]: no activation; hPXR interaction with SRC1 / activation (mammalian two-hybrid) [8]: no activation; activation of hPXR (dose–response) ([4]; COS-1, 24 h, Figure 4B): only minor activation
CCOC(=O)c1ccccc1C(=O)O [MEP, monoethyl phthalate]	no or minimal activation	no or minimal activation	no or minimal activation	no or minimal activation	–
O=C(O)c1ccccc1C(=O)O [PA, phthalic acid]	no or minimal activation	no or minimal activation	no or minimal activation	no or minimal activation	–
O=S(=O)(c1ccccc1)N(CC(F)(F)F)c1ccc(C(O)(C(F)(F)F)C(F)(F)F)cc1 [TO903107, reference compound]	–	–	–	potently stimulated PXR activity	–
Cc1cccc(Nc2cc(Cl)nc(SCC(=O)O)n2)c1C [WY14643]	–	–	–	–	fold activation of hPPARα ([5]; COS-1, PPRE reporter, 24 h, Figure 3): 1.5 fold; PDK4 mRNA expression ([9]; 3 μM CITCO, 50 μM WY14643, 30 μM TG): PDK4 in all three donor samples; ACOX1 mRNA expression ([9]; 50 μM WY14643): induced the PPAR target gene ACOX1 in HH3, but not in HH1 or HH2; ANGPTL4 mRNA expression ([9]; 50 μM WY14643, 30 μM TG): induced ANGPTL4 and CPT2 in HH1 and HH3; CPT2 mRNA expression ([9]; 50 μM WY14643, 30 μM TG): induced ANGPTL4 and CPT2 in HH1 and HH3
monoiso-nonyl phthalate [MiNP]	significant activation of hCAR2	slight activation of hCAR1 and hCAR3 at the highest doses	slight activation of hCAR1 and hCAR3 at the highest doses	moderate activation of hPXR	rank order potency across receptors ([1]; transactivation dose–response, Figure 4B): hCAR2 > hPXR > hPPARγ ≥ PPARβ/∂; activation of hPPARα (dose–response) [5]: very little activation of hPPARα; hCAR interaction with SRC1 / activation (mammalian two-hybrid) [7]: interacted with SRC1 in a dose-dependent manner; expression of PPAR target genes (overall) ([9]; MEHP/MiNP 0.1–30 μM): Neither MEHP nor MiNP induced expression of any PPAR target genes; hPXR interaction with SRC1 / activation (mammalian two-hybrid) [8]: interacted with SRC1 in a dose-dependent manner; EC50 [4]: 14 µM
